Reference: US12465603B2, “Phthalazinone based modulators for the treatment of disease” (Soley Therapeutics, Inc., priority 2022, dated 2025)

What was measured:
[1] = test system: A2058 (ATCC, CRL-11147) cells; assay: Cell viability assay (Cell Titre Glo, 72 hours) in A2058 cells; assay type: cell-based; conditions: Homo sapiens
Procedure: (§1) Example 31: Cell Viability Assays
(§2) Phthalazinone based modulators as described herein were dispensed into 384 well CulturPlates™ (PerkinElmer) using Echo 555 acoustic dispensing in 10-point dose response curves at a final top concentration of 30 μM following a 1 in 3 dilution series. A2058 (ATCC, CRL-11147) or PA1 (ECACC, 90013101) cells were added directly to a compound at a density of 5000 cells per well in a final volume of 50 μL and incubated for 72 hours at 37° C., 5% CO2. Viability was assessed using Cell Titre Glo® (Promega) according to the manufacturer's instructions (25 μL per well) and IC50 curves were generated for each inhibitor using IDBS ActivityBase data analysis software.

[2] = test system: PA1 (ECACC, 90013101) cells; assay: Cell viability assay (Cell Titre Glo, 72 hours) in PA1 cells; assay type: cell-based; conditions: Homo sapiens, PA-1
Procedure: as §1, §2

Row | Compound | IC50 [1] [nM] | IC50 [2] [nM]
1 | COc1ccc(N2CCN(C(=O)c3nn(C)c(=O)c4ccccc34)CC2)cc1 [Compound 29] | > 20000 | > 20000
2 | Cn1nc(C(=O)N2CCN(c3cccn4ccnc34)CC2)c2ccccc2c1=O [Compound 192] | 10000 to 20000 | 1000 to 10000
3 | Cn1nc(C(=O)N2CCN(c3ccncc3)CC2)c2ccccc2c1=O [Compound 28] | > 20000 | > 20000
4 | Cn1nc(C(=O)N2CCN(c3ccc(F)cc3C3CC3)CC2)c2ccccc2c1=O [Compound 60] | ≤ 1000 | ≤ 1000
5 | CCn1nc(C(=O)N2CCN(c3c(C)cnc4ccccc34)CC2)c2ccccc2c1=O [Compound 123] | > 20000 | > 20000
6 | Cn1nc(C(=O)N2CCN(c3cncc(C#N)c3)CC2)c2cc(F)ccc2c1=O [Compound 234, 5-(4-(7-fluoro-3-methyl-4-oxo-3,4-dihydrophthalazine-1-carbonyl)piperazin-1-yl)nicotinonitrile] | > 20000 | > 20000
7 | Cn1nc(C(=O)N2CCN(c3nnccc3C3CC3)CC2)c2ccccc2c1=O [Compound 185, 4-[4-(4-cyclopropylpyridazin-3-yl)piperazine-1-carbonyl]-2-methyl-phthalazin-1-one] | 1000 to 10000 | 1000 to 10000
8 | Cn1nc(C(=O)N2CCN(c3cccc(C4CC4)c3)CC2)c2ccccc2c1=O [Compound 41] | ≤ 1000 | ≤ 1000
9 | CCn1nc(C(=O)N2CCN(c3ccc(OC)c(F)c3)CC2)c2ccccc2c1=O [Compound 141] | > 20000 | > 20000
10 | CCn1nc(C(=O)N2CCN(c3cccc4c3OC(C)(C)C4)CC2)c2ccccc2c1=O [Compound 96] | 1000 to 10000 | ≤ 1000
11 | CCn1nc(C(=O)N2CCN(c3cccc4c3OCC4)CC2)c2ccccc2c1=O [Compound 126] | ≤ 1000 | ≤ 1000
12 | CCn1nc(C(=O)N2CCN(c3ncccc3C)CC2)c2ccccc2c1=O [Compound 106] | 1000 to 10000 | 1000 to 10000
13 | CCn1nc(C(=O)N2CCN(c3ccccc3OC(F)(F)F)CC2)c2ccccc2c1=O [Compound 135] | ≤ 1000 | ≤ 1000
14 | COc1cncc(N2CCN(C(=O)c3nn(C)c(=O)c4ccccc34)CC2)c1 [Compound 35] | 1000 to 10000 | 1000 to 10000
15 | Cn1nc(C(=O)N2CCN(c3ccncc3C3CC3)CC2)c2ccccc2c1=O [Compound 71] | ≤ 1000 | ≤ 1000
16 | COc1cc(C#N)cc(N2CCN(C(=O)c3nn(C)c(=O)c4ccccc34)CC2)c1 [Compound 224, 3-methoxy-5-(4-(3-methyl-4-oxo-3,4-dihydrophthalazine-1-carbonyl)piperazin-1-yl)benzonitrile] | ≤ 1000 | ≤ 1000
17 | COc1ccccc1C1(C)CCN(C(=O)c2nn(C)c(=O)c3ccccc23)CC1 [Compound 249, 4-(4-(2-methoxyphenyl)-4-methylpiperidine-1-carbonyl)-2-methylphthalazin-1(2H)-one] | 1000 to 10000 | 1000 to 10000
18 | COc1cc(F)c(F)cc1N1CCN(C(=O)c2nn(C)c(=O)c3ccccc23)CC1 [Compound 56] | ≤ 1000 | ≤ 1000
19 | CCn1nc(C(=O)N2CCN(c3ccc(F)cc3OC(F)F)CC2)c2ccccc2c1=O [Compound 145] | 1000 to 10000 | ≤ 1000
20 | CCn1nc(C(=O)N2CCN(c3ccc(C)s3)CC2)c2ccccc2c1=O [Compound 125] | > 20000 | 10000 to 20000

Row | Compound | IC50 [1] [nM] | IC50 [2] [nM]
21 | COc1cc(F)ccc1N1CCN(C(=O)c2nn(C)c(=O)c3cnccc23)CC1 [Compound 178] | > 20000 | > 20000
22 | Cc1ccc(C#N)cc1N1CCN(C(=O)c2nn(C)c(=O)c3ccccc23)CC1 [Compound 67] | ≤ 1000 | ≤ 1000
23 | Cn1nc(C(=O)N2CCN(c3ccccc3)CC2)c2ccncc2c1=O [Compound 171, 3-methyl-1-(4-phenylpiperazine-1-carbonyl)pyrido[3,4-d]pyridazin-4-one] | > 20000 | > 20000
24 | CCn1nc(C(=O)N2CCN(c3ccccc3F)CC2)c2ccccc2c1=O [Compound 100] | 1000 to 10000 | ≤ 1000
25 | O=C(c1nn(CC(F)F)c(=O)c2ccccc12)N1CCN(c2ccccc2)CC1 [Compound 7] | > 20000 | > 20000
26 | CC(C)c1cncc(N2CCN(C(=O)c3nn(C)c(=O)c4ccccc34)CC2)c1 [Compound 204] | > 20000 | > 20000
27 | CCn1nc(C(=O)N2CCN(c3cc(F)cc(F)c3)CC2)c2ccccc2c1=O [Compound 142] | ≤ 1000 | ≤ 1000
28 | Cn1nc(C(=O)N2CCN(c3ccnc(C4CC4)c3)CC2)c2ccccc2c1=O [Compound 76] | 10000 to 20000 | 1000 to 10000
29 | COc1ccc(F)c(N2CCN(C(=O)c3nn(C)c(=O)c4ccccc34)CC2)c1 [Compound 44] | ≤ 1000 | ≤ 1000
30 | CCn1nc(C(=O)N2CCN(c3cc(F)cc(C#N)c3)CC2)c2cnccc2c1=O [Compound 241, 3-(4-(2-ethyl-1-oxo-1,2-dihydropyrido[3,4-d]pyridazine-4-carbonyl)piperazin-1-yl)-5-fluorobenzonitrile] | ≤ 1000 | ≤ 1000
31 | Cn1nc(C(=O)N2CCN(c3cccc4c3OCC4)CC2)c2ccccc2c1=O [Compound 52] | ≤ 1000 | ≤ 1000
32 | CCn1nc(C(=O)N2CCN(c3cccc(C4CC4)c3)CC2)c2ccccc2c1=O [Compound 116, 4-(4-(3-cyclopropylphenyl)piperazine-1-carbonyl)-2-ethylphthalazin-1(2H)-one] | ≤ 1000 | ≤ 1000
33 | Cn1nc(C(=O)N2CCN(c3cc(F)cc(OC(F)(F)F)c3)CC2)c2ccccc2c1=O [Compound 197] | 1000 to 10000 | ≤ 1000
34 | CCn1nc(C(=O)N2CCN(c3cc(OC)ccn3)CC2)c2ccccc2c1=O [Compound 85] | 1000 to 10000 | 1000 to 10000
35 | CCc1ccncc1N1CCN(C(=O)c2nn(C)c(=O)c3ccccc23)CC1 [Compound 66] | 1000 to 10000 | ≤ 1000
36 | CCn1nc(C(=O)N2CCN(c3ccccc3OC3CC3)CC2)c2ccccc2c1=O [Compound 132] | 1000 to 10000 | ≤ 1000
37 | COc1cccc(N2CCN(C(=O)c3nn(C)c(=O)c4ncccc34)CC2)c1 [Compound 182, 5-(4-(3-methoxyphenyl)piperazine-1-carbonyl)-7-methylpyrido[2,3-d]pyridazin-8(7H)-one] | > 20000 | > 20000
38 | COc1ncc(F)cc1N1CCN(C(=O)c2nn(C)c(=O)c3ccccc23)CC1 [Compound 75] | ≤ 1000 | ≤ 1000
39 | Cn1nc(C(=O)N2CCN(c3cncc4c3OCC4)CC2)c2ccccc2c1=O [Compound 190] | ≤ 1000 | ≤ 1000
40 | Cc1cncc(N2CCN(C(=O)c3nn(C)c(=O)c4ccc(F)cc34)CC2)c1C [Compound 208] | 1000 to 10000 | ≤ 1000

Row | Compound | IC50 [1] [nM] | IC50 [2] [nM]
41 | Cn1nc(C(=O)N2CCN(c3cccc4c3OC(F)(F)O4)CC2)c2ccccc2c1=O [Compound 80] | ≤ 1000 | ≤ 1000
42 | Cn1nc(C(=O)N2CCN(c3ccccc3C3CC3)CC2)c2ccncc2c1=O [Compound 181] | ≤ 1000 | ≤ 1000
43 | COc1cc(F)cc(N2CCN(C(=O)c3nn(C)c(=O)c4ccccc34)CC2)c1 [Compound 34, 4-(4-(3-fluoro-5-methoxyphenyl)piperazine-1-carbonyl)-2-methylphthalazin-1(2H)-one] | ≤ 1000 | ≤ 1000
44 | CCn1nc(C(=O)N2CCN(c3ccc(F)cc3OC(F)(F)F)CC2)c2ccccc2c1=O [Compound 120] | 1000 to 10000 | 1000 to 10000
45 | Cn1nc(C(=O)N2CCN(c3cncc(Cl)c3)CC2)c2cc(F)ccc2c1=O [Compound 165] | 1000 to 10000 | 1000 to 10000
46 | Cn1nc(C(=O)N2CCN(c3nccnc3C3CC3)CC2)c2ccccc2c1=O [Compound 21] | > 20000 | 1000 to 10000
47 | CCn1nc(C(=O)N2CCN(c3cccc4c3OC(F)(F)O4)CC2)c2ccccc2c1=O [Compound 124] | ≤ 1000 | ≤ 1000
48 | CCn1nc(C(=O)N2CCN(c3ncccc3F)CC2)c2ccccc2c1=O [Compound 107] | > 20000 | > 20000
49 | Cn1nc(C(=O)N2CCN(c3cncnc3C3CC3)CC2)c2cc(F)ccc2c1=O [Compound 168] | 1000 to 10000 | ≤ 1000
50 | CCn1nc(C(=O)N2CCN(c3ncncc3OC)CC2)c2ccccc2c1=O [Compound 98] | 1000 to 10000 | 1000 to 10000
51 | CCn1nc(C(=O)N2CCN(c3cccc(F)c3)CC2)c2ccccc2c1=O [Compound 146] | ≤ 1000 | ≤ 1000
52 | CCOc1cc(F)ccc1N1CCN(C(=O)c2nn(CC)c(=O)c3ccccc23)CC1 [Compound 148] | ≤ 1000 | ≤ 1000
53 | Cn1nc(C(=O)N2CCN(c3cc(F)cc(F)c3)CC2)c2ccccc2c1=O [Compound 54] | ≤ 1000 | ≤ 1000
54 | Cn1nc(C(=O)N2CCN(c3cncc(F)c3)CC2)c2ccccc2c1=O [Compound 38] | 10000 to 20000 | 1000 to 10000
55 | Cc1ccncc1N1CCN(C(=O)c2nn(C)c(=O)c3ccc(F)cc23)CC1 [Compound 167] | ≤ 1000 | ≤ 1000
56 | CCn1nc(C(=O)N2CCN(c3cccc(F)c3OC)CC2)c2ccccc2c1=O [Compound 138] | ≤ 1000 | ≤ 1000
57 | Cn1nc(C(=O)N2CCN(c3cccc(C#N)c3)CC2)c2cc(F)ccc2c1=O [Compound 157, 3-(4-(7-fluoro-3-methyl-4-oxo-3,4-dihydrophthalazine-1-carbonyl)piperazin-1-yl)benzonitrile] | ≤ 1000 | ≤ 1000
58 | CCn1nc(C(=O)N2CCN(c3ncc(C#N)cc3OC)CC2)c2ccccc2c1=O [Compound 93] | 1000 to 10000 | 1000 to 10000
